These results are taken from article PMC6373673, “Purified PEGylated human glucagon-like peptide-2 reduces the severity of irradiation-induced acute radiation enteritis in rats” (Journal of Radiation Research, 2018).

Molecules are shown by their SMILES.

Data set [1] has as its system irradiation-induced acute radiation enteritis in rats. Put plainly: Clinical, gross, histological and morphometric changes of the small intestine in irradiation-induced acute radiation enteritis. The format is in vivo, Sprague Dawley (SD) rats. Also noted: key to Shortening of villi (histologic) / Architectural disarray (histologic) / Diarrhea / Abdominal distention / Intestinal dilatation (gross) / Mucosal ulceration (gross) / Edema (gross): (–) = absent; (+) = present; Number of villi: unit not given here. The note with it: SD rats, 8 Gy abdominal X-ray. An excerpt: (§1) Sixty adult male Sprague Dawley (SD) rats weighing 220–250 g were included in our study. Rats were subjected to 1 week of preliminary conditioning, during which time they received standard pellet rat chow and water ad libitum. They were housed in a temperature-and humidity-controlled environment, two animals per cage, with a 12-h light/12-h dark cycle. The Principles of Laboratory Animal Care (NIH Publication 85e23, revised 1996) were followed. Animal study protocols were approved by the Ethics Committee of the Fourth Military Medical University. The experiment was carried out at the Department of Pharmacy, Tangdu Hospital, Fourth Military Medical University.
(§2) X-ray irradiation was performed using a linear accelerator (Siemens primask) adjusted to provide X-ray irradiation, and carried out at the Department of Radiology and Oncology at the Tangdu Hospital. All of the animals were anesthetized with an intramuscular injection of pentobarbital sodium (100 mg/kg) and subjected to a single dose of 8 Gy abdominal X-radiation. The dose was delivered at a rate of 400 monitor units/min (1100 rad, 116.5 cGy/min, 100 cm source–skin distance) using a conventional radiation source, while the other parts of the body were carefully shielded.
(§3) Rats were randomized into six groups (Groups A–F). […] The remaining rats were subjected to a single dose of 8 Gy of abdominopelvic X-radiation and randomized further into five groups (Groups B–F). […] Briefly, rats were anesthetized with 100 mg/kg pentobarbital sodium, positioned supine, and subjected to a single fraction of 8 Gy delivered at a specific depth through abdominopelvic fields using X-rays at the rate of 0.74 Gy/min, while the other parts of the body were carefully shielded. Radiated rats were allowed to recover from the anesthetic and GLP-2 or Mono-PEG-hGLP-2 was administered by intraperitoneal injection. • Group A: non-X-ray irradiated (control). • Group B: X-ray irradiated. • Group C: pretreated with 3 μg of Mono-PEG-hGLP-2 in 0.3 ml of saline 5 min before X-ray irradiation. • Group D: pretreated with 10 μg of Mono-PEG-hGLP-2 in 0.3 ml of saline 5 min before X-ray irradiation. • Group E: pretreated with 30 μg of Mono-PEG-hGLP-2 in 0.3 ml of saline 5 min before X-ray irradiation. • Group F: pretreated with 30 μg of GLP-2 in 0.3 ml of saline 5 min before X-ray irradiation.
Animals were killed 48 h after X-ray irradiation, and laparotomies were performed. Immediately after the laparotomy, the small intestine (jejunum) was examined and removed. Two-centimeter segments of the jejunum and segments of the intestine showing edema and change in color (purple) were resected. Luminal contents were washed with 0.9% NaCl by injecting saline through the lumen of the small bowel segments. Tissue samples were pinned out on a paraffin block and floated upside down in 10% buffered formalin overnight, dehydrated, and embedded in paraffin. Sections of 4 μm were cut with a Leica sliding microtome (SM 2000R, Nussbach, Germany) and slides, containing a minimum of 10 sections, were stained with hematoxylin and erosin stains. Some representative intestine sections were processed for ultrastructural studies. Sections were evaluated quantitatively and qualitatively in a blinded fashion.
For histological assessment, villous height (from the base to the tip of the villi), crypt height (from the base to the tip of each crypt), and the number of villi per square millimeter was determined based on individual intestinal segments at five separate microscopic fields for each animal. They were recorded as the mean values using ocular micrometer-adapted light microscopy at a magnification of ×100.

Data set [2] relates to oxidative stress markers (MDA, SOD, GSH, GSH-Px) in the small intestine. The experiment in a line: Intestinal MDA, SOD, GSH and GSH-Px (commercial assay kits) after X-ray irradiation. The format is in vivo, Sprague Dawley (SD) rats. The note with it: SD rats, 8 Gy abdominal X-ray, 30 μg i.p. 5 min before irradiation.
Excerpt: as §1, §2, §3
(§4) Malondialdehyde (MDA) levels, glutathione (GSH) content, and the activities of super oxide-dismutase (SOD) and glutathione peroxidase (GPx) were determined in the small intestine using commercial assay kits (Biyuntian Co., China) according to the manufacturer’s protocols. The protein content ratio was determined by Pierce™ BCA Protein Assay Kit (Thermo Fisher Scientific Inc., Rockford, IL, USA). All of the values were normalized to total intestinal protein. Small intestine tissue (20 mg) was homogenized in lysis buffer (150 mM NaCl, 0.1% SDS, 0.1% NP-40, 20 mM Tris-HCl pH 7.5) and protease inhibitor cocktail using a Tissue Lyser II homogenizer (Qiagen; Hilden, Germany). Total protein concentrations of tissue homogenates were detected by a Pierce™ BCA Protein Assay Kit (Thermo Scientific; Rockford, IL, USA). The levels of tumor necrosis factor-alpha (TNF-α) (Invitrogen; Carlsbad, CA, USA) and interleukin-2 (IL-2) (Bioo Scientific; Austin, TX, USA) in the tissue samples were determined using commercially available sandwich ELISA kits, according to the protocol recommended by the manufacturer. Results were recorded as the ratio of detected protein (TNF-α, IL-2) (pg/ml) to the amount of total protein (mg/ml).

In a further data set the test system is TNF-α. The experiment in a line: Intestinal TNF-α by sandwich ELISA after X-ray irradiation. The format is in vivo, Sprague Dawley (SD) rats. To be noted: SD rats, 8 Gy abdominal X-ray, 30 μg i.p. 5 min before irradiation, small intestine homogenate 48 h after, mean ± S.D., n = 10.
Excerpt: as §1, §2
Rats were randomized into six groups (Groups A–F). […] The remaining rats were subjected to a single dose of 8 Gy of abdominopelvic X-radiation and randomized further into five groups (Groups B–F). […] Briefly, rats were anesthetized with 100 mg/kg pentobarbital sodium, positioned supine, and subjected to a single fraction of 8 Gy delivered at a specific depth through abdominopelvic fields using X-rays at the rate of 0.74 Gy/min, while the other parts of the body were carefully shielded. […]
as §4, with “All of the values were normalized to total intestinal protein. Small intestine tissue (20 mg) was homogenized in lysis buffer (150 mM NaCl, 0.1% SDS, 0.1% NP-40, 20 mM Tris-HCl pH 7.5) and protease inhibitor cocktail using a Tissue Lyser II homogenizer (Qiagen; Hilden, Germany).” left out
On the technique in general: ELISA stands for enzyme-linked immunosorbent assay.

The conditions of data set [3]: GLP-2 in vivo, introduction statement, no reference given; cited from earlier work. The text has this:
Glucagon-like peptide-2 (GLP-2) is a 33-amino acid peptide derived from the post-translational processing of proglucagon in enteroendocrine L-cells and cerebral neurons. GLP-2 exerts diverse effects related to the regulation of gastrointestinal growth and function, including stimulation of mucosal growth, inhibition of apoptosis, increased nutrient absorption, inhibition of gastric emptying and gastric acid secretion, reduction of intestinal permeability, stimulation of intestinal blood flow, and relaxation of intestinal smooth muscle. GLP-2 h ...

The mark [4] stands for this setting: 30 μg i.p. 5 min before irradiation, jejunum 48 h after, five microscopic fields per animal, ×100, mean ± SD.
Setting [5] is: 30 μg i.p. in 0.3 ml saline 5 min before irradiation, killed 48 h after.
The mark [6] stands for this setting: small intestine 48 h after, mean ± S.D., n = 10.

In data set [1] (setting [4]), `CC[C@H](C)[C@H](NC(=O)[C@H](Cc1ccccc1)NC(=O)[C@H](CC(=O)O)NC(=O)[C@H](CCCNC(=N)N)NC(=O)[C@H](C)NC(=O)[C@H](C)NC(=O)[C@H](CC(C)C)NC(=O)[C@H](CC(N)=O)NC(=O)[C@H](CC(=O)O)NC(=O)[C@H](CC(C)C)NC(=O)[C@@H](NC(=O)[C@@H](NC(=O)[C@H](CC(N)=O)NC(=O)[C@H](CCSC)NC(=O)[C@H](CCC(=O)O)NC(=O)[C@H](CC(=O)O)NC(=O)[C@H](CO)NC(=O)[C@H](Cc1ccccc1)NC(=O)[C@H](CO)NC(=O)CNC(=O)[C@H](CC(=O)O)NC(=O)[C@H](C)NC(=O)[C@@H](N)Cc1c[nH]cn1)[C@@H](C)O)[C@@H](C)CC)C(=O)N[C@@H](CC(N)=O)C(=O)N[C@@H](Cc1c[nH]c2ccccc12)C(=O)N[C@@H](CC(C)C)C(=O)N[C@H](C(=O)N[C@@H](CCC(N)=O)C(=O)N[C@H](C(=O)N[C@@H](CCCCN)C(=O)N[C@H](C(=O)N[C@H](C(=O)N[C@@H](CC(=O)O)C(N)=O)[C@@H](C)O)[C@@H](C)CC)[C@@H](C)O)[C@@H](C)CC` [GLP-2, hGLP-2(1–33) amide, reference compound] displayed a Crypt height of 113.8 ± 10.9 μm, a Height of villi of 229.7 ± 15.9 μm and a Number of villi of 32.1 ± 4.1. Further, in data set [1] (setting [5]), the Abdominal distention result was “+”, the “Architectural disarray (histologic)” value is recorded as “+”, the Diarrhea result is on record as “+” and the “Edema (gross)” value is “+”. In data set [1] (setting [5]), the “Intestinal dilatation (gross)” value is reported as “+”, the “Mucosal ulceration (gross)” value is “+” and the “Shortening of villi (histologic)” value is given as “+”. Also, the “Protection against radiation-induced intestinal injury (villi integrity, histology)” value in data set [1] (i.p. pretreatment 5 min before irradiation, result in words) was “did not protect mice against radiation-induced intestinal injury”. For the same compound, the “Protective effect on intestinal antioxidant enzymes and inflammatory factors” value in data set [2] (result in words) is “no significant protective effect”. Besides, in data set [2] (setting [6]), the “Intestinal GSH-Px activity” value is recorded as 246.1 ± 37.8 U/mg prot, the “Intestinal SOD activity” value worked out at 35.27 ± 4.66 U/mg prot, the “Intestinal content of GSH” value worked out at 18.22 ± 3.44 mg/g prot and the Intestinal content of MDA came out at 5.51 ± 0.47 nmol/mg prot. In the data set with TNF-α, the “Intestinal content of TNF-α” value is given as 9.78 ± 1.06 pg/mg prot. Besides, the plasma half-life in data set [3] is recorded as 7 min.
